Patent US20090270508A1, “GluR2 receptor modulators” (priority 2007, published 2009)
One block for each molecule: values may come before it.

Columns and labels:
GluR21 receptors = GluR21 receptors (Rattus norvegicus, UniProt P19491); experiment: Whole-cell recording, potentiation of steady-state glutamate-induced currents; type: cell-based; conditions: whole-cell mode (−60 mV), 1 mM glutamate
Experimental: FIG. 18. (A) Potentiation of steady-state glutamate-induced currents for GluR2; receptors and (B) % current potentiation bar graph.
Potentiation of steady-state glutamate-induced currents for GluR21 receptors by N,N′-(2S,2′S)-2,2′-(biphenyl-4,4′-diyl)bis(2-fluoropropane-2,1-diyl)dipropane-2-sulfonamide).
The recordings are in whole-cell mode (−60 mV) and show inward currents elicited by 1 mM glutamate in the presence of various concentrations of N,N′-(2S,2′S)-2,2′-(biphenyl-4,4′-diyl)bis(2-fluoropropane-2,1-diyl)dipropane-2-sulfonamide).

GluR2 receptor = target: T1, GluR2 receptor (Rattus norvegicus, UniProt P19491); experiment: Electrophysiologic studies in GluR2 expressing oocytes (I/Imax versus concentration); type: cell-based; conditions: cells expressing the GluR2 receptor, FIG. 16A-D
T1 construct: expressed in transfected cells; host or cells: Xenopus laevis oocytes
Experimental: FIG. 16A-E. Electrophysiologic studies comparing N,N′-(2R,2′R)-2,2′-(biphenyl-4,4′-diyl)bis(propane-2,1-diyl)dipropane-2-sulfonamide) with LY451646. A. Microamperes of current over various periods of time in a GluR2 expressing oocyte (Xenopus laevis oocyte with microinjected rat GluR2 receptor-encoding mRNA), exposed to various concentrations (0.001 μM, 0.01 μM, 0.1 μM and 1 μM) of N,N′-(2R,2′R)-2,2′-(biphenyl-4,4′-diyl)bis(propane-2,1-diyl)dipropane-2-sulfonamide). B. Microamperes of current over various periods of time in a GluR2 expressing oocyte exposed to various concentrations (0.001 μM, 0.01 μM, 0.1 μM, 1 μM and 10 μM) of LY451646. C. In an oocyte expressing GluR2, ratio of current/maximal current (I/Imax) versus concentration of N,N′-(2R,2′R)-2,2′-(biphenyl-4,4′-diyl)bis(propane-2,1-diyl)dipropane-2-sulfonamide). D. In an oocyte expressing GluR2, ratio of current/maximal current (I/Imax) versus concentration of LY451646. E. N,N′-(2R,2′R)-2,2′-(biphenyl-4,4′-diyl)bis(propane-2,1-diyl)dipropane-2-sulfonamide).

locomotor activity = experiment: Amphetamine-induced locomotor activity in activity chambers; type: in vivo; conditions: mice, 1 mg/kg and 3 mg/kg i.p.
Experimental: FIG. 17. Effect of N,N′-(2R,2′R)-2,2′-(biphenyl-4,4′-diyl)bis(propane-2,1-diyl)dipropane-2-sulfonamide) on locomotor activity in the context of various doses of amphetamine.
Mice (male, 8 weeks of age; 129S6/SvEv from Taconic) were housed in groups of five for one week. Animals were injected (i.p.) with either vehicle (diluent:saline at a ratio of 3:50 v/v), or one of two doses of GR341 (1 mg/kg and 3 mg/kg). After 15 minutes, animals were injected (i.p.) either with saline or Amphetamine at 3 mg/kg. Mice were held individually without food or water for an additional 15 minutes and then placed in Plexiglas activity chambers (model ENV-520; Med Associates, St. Albans, Vt.) (43.2 cm long×43.2 cm wide×30.5 cm high) to assess locomotor activity. Mice were placed into the center of the open field, and activity was recorded for 30 minutes with subtotals for 5-minute increments. Testing was performed in darkness to minimize anxiety.

Delta ATD GluR2 = experiment: Two electrode voltage clamp (TEVC) recording of glutamate currents in oocytes; type: cell-based; conditions: glutamate plus compound versus glutamate alone, FIG. 3
Excerpt: FIG. 3. LY451646 potentiates glutamate currents from Delta ATD GluR2 as measured by TEVC in oocytes. The top tracing represents application of glutamate alone, the bottom tracing glutamate plus LY451646.
(§1) LY451646 is an […] of GluR2. […] The top tracing represents application of glutamate alone, the bottom tracing glutamate plus LY451646. […] In the absence of LY451646, the amount of dimerized GluR2 barely rises above baseline (FIG. 4A). With the addition of LY451646, dimers overtake monomers (FIG. 4B).

GluR2 S1S2 = GluR2 S1S2 (Rattus norvegicus, UniProt P19491, DEL528-650/N775S/S652T/V651G); experiment: Dimerization of GluR2 S1S2; conditions: FIG. 4A-B
Excerpt: (A) GluR2 alone; (B) GluR2S1S2 in the presence of LY451646.
as §1

despair = conditions: Bai et al., 2001; cited from earlier work
[1] = test system: hippocampal cell proliferation; conditions: rats, Bai et al., 2003; cited from earlier work
AMPA = conditions: rat, glucose utilization and c-fos expression, Fowler et al., 2004; cited from earlier work
[2] = target: GluR2 Flip splice variant (Homo sapiens, UniProt P42262); conditions: by decreasing desensitization, Quirk and Nisenbaum, 2003; cited from earlier work
[3] = test system: rat model of Parkinson's disease; conditions: O'Neil et al., 2004; cited from earlier work

Sequence of GluR21 receptors (P19491 22-883 isoform P19491-2 limits assumed): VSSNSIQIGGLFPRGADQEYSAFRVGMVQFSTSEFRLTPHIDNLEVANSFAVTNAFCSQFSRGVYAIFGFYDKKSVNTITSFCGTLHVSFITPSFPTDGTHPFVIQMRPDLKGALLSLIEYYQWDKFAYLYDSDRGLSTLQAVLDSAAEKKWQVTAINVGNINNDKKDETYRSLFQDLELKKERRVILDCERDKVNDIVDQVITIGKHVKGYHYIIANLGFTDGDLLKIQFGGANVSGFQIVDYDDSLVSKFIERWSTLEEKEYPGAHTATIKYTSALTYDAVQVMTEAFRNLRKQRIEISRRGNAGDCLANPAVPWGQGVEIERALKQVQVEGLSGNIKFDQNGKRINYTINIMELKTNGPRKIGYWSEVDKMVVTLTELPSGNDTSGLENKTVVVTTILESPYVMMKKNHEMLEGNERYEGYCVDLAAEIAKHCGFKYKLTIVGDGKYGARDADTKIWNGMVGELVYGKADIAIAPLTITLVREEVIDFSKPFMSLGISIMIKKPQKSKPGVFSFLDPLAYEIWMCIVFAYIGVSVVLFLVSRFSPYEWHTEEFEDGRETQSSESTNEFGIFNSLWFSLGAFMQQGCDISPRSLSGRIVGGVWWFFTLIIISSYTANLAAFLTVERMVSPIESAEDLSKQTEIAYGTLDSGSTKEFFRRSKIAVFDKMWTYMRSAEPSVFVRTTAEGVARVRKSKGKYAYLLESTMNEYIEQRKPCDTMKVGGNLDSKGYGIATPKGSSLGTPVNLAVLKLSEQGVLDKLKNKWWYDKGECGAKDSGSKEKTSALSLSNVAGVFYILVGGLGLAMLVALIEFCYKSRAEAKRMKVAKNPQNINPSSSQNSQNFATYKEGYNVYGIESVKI
T1 sequence (P19491 22-883): as the sequence (P19491 22-883 isoform P19491-2 limits assumed) above, with T744N, P745A, S754N, V758L, A775S, K776G, D777G, S778G, G779D counted along it
Sequence of GluR2 Flip splice variant (P42262 22-883 isoform P42262-2 limits assumed): as the sequence (P19491 22-883 isoform P19491-2 limits assumed) above, with T170M, A270T, G743R, P831A counted along it
Sequence of GluR2 S1S2 (P19491 with tags, fused parts or gaps DEL528-650/V651G/S652T/N775S): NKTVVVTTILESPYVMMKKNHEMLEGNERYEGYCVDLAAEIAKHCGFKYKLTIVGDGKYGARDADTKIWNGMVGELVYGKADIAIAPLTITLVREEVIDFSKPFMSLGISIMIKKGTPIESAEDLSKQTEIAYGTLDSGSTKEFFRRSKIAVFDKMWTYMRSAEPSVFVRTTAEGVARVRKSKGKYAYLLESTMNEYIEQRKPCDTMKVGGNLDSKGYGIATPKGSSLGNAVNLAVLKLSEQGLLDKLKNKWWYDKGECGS

- saturating concentration (GluR21 receptors): 200 nM
- effect on glutamate receptor currents (GluR21 receptors; FIG. 18): potentiates glutamate receptor currents
- EC50 (GluR21 receptors; FIG. 18B, approximately half saturating concentration): ~50 nM
Compound: CC(C)S(=O)(=O)NC[C@@](C)(F)c1ccc(-c2ccc([C@](C)(F)CNS(=O)(=O)C(C)C)cc2)cc1 [N,N′-(2S,2′S)-2,2′-(biphenyl-4,4′-diyl)bis(2-fluoropropane-2,1-diyl)dipropane-2-sulfonamide)]

- EC50 (GluR2 receptor): 12.7 ± 0.6 nM
Compound: CC(C)S(=O)(=O)NC[C@H](C)c1ccc(-c2ccc([C@@H](C)CNS(=O)(=O)C(C)C)cc2)cc1 [GR341]
- effect on amphetamine-induced locomotor activity (locomotor activity; amphetamine 3 mg/kg i.p., 30 minutes, FIG. 17): inhibited amphetamine-induced locomotor activity
- effect of the compound alone on locomotor activity (locomotor activity; saline instead of amphetamine): no significant effect

Compound: CC(C)S(=O)(=O)NC[C@H](C)c1ccc(-c2ccc(C#N)cc2)cc1 [LY451646]
- effect on glutamate currents (Delta ATD GluR2): potentiate glutamate currents
- dimerization of GluR2 S1S2 (GluR2 S1S2): promotes dimerization
- EC50 (GluR2 receptor): 130 ± 16 nM
- "despair" in the FST and TST (despair): reduce “despair”
- hippocampal cell proliferation [1]: increase hippocampal cell proliferation

Compound: CC(CNS(=O)(=O)C(C)C)c1ccc(-c2ccc(C#N)cc2)cc1 (centres unmarked) [LY404187, R,S—N-2-(4-(4-Cyanophenyl)phenyl)propyl 2-propanesulfonamide]
- glutamate dependent AMPA stimulation of the brain (AMPA): increases glutamate dependent AMPA stimulation
- receptor's response to glutamate [2]: potentiate the receptor's response to glutamate
- neurotrophic effect [3]: exhibit a neurotrophic effect
